In PubChem BioAssay AID2060359 (Molecular Pharmacology Branch, DTP, NCI, 2025) one finds viability, T/C and IC50 data, which are given here for 4 compounds.

Structures are written as SMILES. Several values for one entry are separate records, joined by “and”; a condition that tells them apart may be missing. Equal entries are not always repeated.

The test system of this test is 276233-004-R-J1-PDC spheroids with HUVEC/MSC, viability. Kind of test: Anticancer human tumor 276233-004-R-J1-PDC patient-derived colon adenocarcinoma cell line growth inhibition [TAK]. The following applies: for viability, T/C: stronger effect = lower value. The source says: Combinatorial screen of targeted agents with TAK-243 and ipatasertib in multi-cell type tumor spheroids
A high-throughput screen of multi-cell type tumor spheroids was designed to identify active combinations of targeted small molecules and TAK-243 or ipatasertib. Complex spheroids include a stromal component modeled by human endothelial cells (HUVEC) and fibroblasts modeled by human mesenchymal stem cells (MSCs). The concentration ranges selected for each drug and investigational agent were based upon clinically achievable concentrations if the clinical Cmax of the agent was known.
Compounds. The drugs and investigational agents: TAK-243 (785004), ipatasertib (767898), everolimus (733504), selumetinib (741078), bortezomib (756655), trametinib (758246), ixazomib (758254), vemurafenib (761431), dabrafenib (764134), sapanisertib (764658), alpelisib (765974), and copanlisib (816437), were obtained from the National Cancer Institute (NCI) Developmental Therapeutics Program Chemical Repository. The FDA-approved anticancer drug set is available from the NCI Developmental Therapeutics Program. […] The stock solutions were prepared in dimethyl sulfoxide (DMSO, Sigma-Aldrich, St. Louis, MO, cat. D2650) at 800-fold the tested concentration and stored at -70 degrees C prior to their use. All drugs and investigational agents were tested over a range starting from a high concentration at or near the clinical Cmax and decreasing in half-log increments. If the clinical Cmax for an agent had not been determined, the highest concentration tested was 10 microM.
NCI60 Cell Culture. NCI60 cell lines were obtained from the NCI Developmental Therapeutics Program Tumor Repository. For each lot of cells, the Repository performed Applied Biosystems AmpFLSTR Identifiler testing with PCR amplification to confirm consistency with the published Identifier STR profile for each cell line. Cells were kept in continuous culture for no more than 20 passages. The optimal seeding densities for each of the cell lines at each time point assessed were determined prior to performing the concentration response studies. Briefly, the NCI60 human tumor lines were grown as monolayers in RPMI 1640 medium supplemented with 10% FBS and 2 mmol/L L-glutamine.
An additional 2 lines were from the NCI60 cell line panel including melanomas, MALME-3M and SK-MEL-2. Pooled donor human umbilical vein endothelial cells (HUVEC, Lonza, cat. CC-2519) and human mesenchymal stem cells (hMSC, Lonza, cat. PT-2501) were purchased from Lonza (Walkersville, MD).
PDMR cell lines were grown in complete medium (DC medium): Dulbecco's modified Eagle's medium (DMEM)/F12 supplemented with 5% fetal bovine serum (FBS), 2 mM L-glutamine, 100 U/mL penicillin and 100 µg/ml streptomycin, 0.4 µg/ml hydrocortisone, 10 ng/ml epidermal growth factor (EGF) recombinant human protein, 24 µg/mL adenine, and 0.1 mg/mL primocin. During culture from frozen stock vials, PDMR cells were cultured in the same medium containing 10 µM Y-27632 (see Table 3). The PDCs were cultured in complete DMEM/F12 media without 10 microM Y-27632 dihydrochloride for at least two passages prior to the screen. The pooled donor HUVEC and hMSC were cultured in endothelial cell growth medium 2 (PromoCell, Heidelberg, Germany, cat. C-22011) and mesenchymal stem cell growth medium 2 (PromoCell, cat. C-28009), respectively. For all experiments, HUVEC and hMSC were used at passages </=5.
For the pre-screen, cell seeding densities were determined from a titration spanning the range from 5,000 to 313 cells per well. The mct-spheroids including 60% malignant cells, 25% HUVEC and 15% MSC dispensed as a mixture into U-bottom Ultra-Low Attachment 384-well plates (Corning, NY)
High-throughput Drug Combination Screening.
Prior to their inoculation into 384-well plates, malignant cells, HUVEC, and hMSC were removed from T flasks using TrypLE express (Thermo Fisher Scientific, cat. 12605036) and harvested by centrifugation for 5 min at 233 x g. […]

Setting [1] is: curve of first compound, second compound 0.3 µM.
Where [2] appears, read: curve of first compound, second compound 0.949 µM.
Setting [3] is: curve of first compound, second compound 3 µM.
Where [4] appears, read: curve of first compound, second compound 9.49 µM.
Where [5] appears, read: curve of first compound, second compound 30 µM.
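Further: spheroids exposed to drugs for seven days before the viability read.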

For `CC(C)(C)c1nc(-c2cccc(NS(=O)(=O)c3c(F)cccc3F)c2F)c(-c2ccnc(N)n2)s1`, the viability, T/C is, setting by setting: (compound 0.0316 µM) 93.4% and 107%; (compound 0.1 µM) 86.3% and 116%; (compound 0.316 µM) 113% and 106%; (compound 1 µM) 86.4% and 100%; (compound 3.16 µM) 77.2% and 58.5%; (compound 10 µM) 84.5% and 86.9%. Besides, under “curve of compound”, the concentration for half-maximal inhibition (IC50) is over 10000 nM.

`CC(=O)Nc1cccc(-n2c(=O)n(C3CC3)c(=O)c3c(Nc4ccc(I)cc4F)n(C)c(=O)c(C)c32)c1`: the viability, T/C was 92.8% and 120% (compound 94.9 pM); 81.6% and 81.1% (compound 0.0003 µM); 88.4% and 73.1% (compound 0.000949 µM); 70.1% and 70% (compound 0.003 µM); 61.6% and 54.3% (compound 0.00949 µM); 37.1% and 44.9% (compound 0.03 µM). Besides, the half-inhibitory concentration (IC50) (curve of compound) was 15.7 nM and 29.7 nM.

Take `CC(=O)Nc1cccc(-n2c(=O)n(C3CC3)c(=O)c3c(Nc4ccc(I)cc4F)n(C)c(=O)c(C)c32)c1` + CC(C)NCC(C(=O)N1CCN(c2ncnc3c2C(C)CC3O)CC1)c1ccc(Cl)cc1: the 50% inhibitory concentration (IC50) under setting [1] stood at 8.22 nM; the IC50 under setting [2] came to 5.23 nM; the IC50 under setting [3] was 3.25 nM; the half-inhibitory concentration (IC50) under setting [4] came out at 1.82 nM; the IC50 under setting [5] was 0.326 nM. In addition, the viability, T/C by setting is: (second compound 0.3 µM, first compound 94.9 pM) 101%; (second compound 0.3 µM, first compound 0.0003 µM) 86.7%; (second compound 0.3 µM, first compound 0.000949 µM) 67.2%; (second compound 0.3 µM, first compound 0.003 µM) 73.8%; (second compound 0.3 µM, first compound 0.00949 µM) 48.8%; (second compound 0.3 µM, first compound 0.03 µM) 28.6%. For the same compound, the viability, T/C by setting is: (second compound 0.949 µM, first compound 94.9 pM) 80.8%; (second compound 0.949 µM, first compound 0.0003 µM) 84.8%; (second compound 0.949 µM, first compound 0.000949 µM) 77.1%; (second compound 0.949 µM, first compound 0.003 µM) 55.4%; (second compound 0.949 µM, first compound 0.00949 µM) 43.2%; (second compound 0.949 µM, first compound 0.03 µM) 26%. Besides, the viability, T/C is, setting by setting: (second compound 3 µM, first compound 94.9 pM) 77.9%; (second compound 3 µM, first compound 0.0003 µM) 61.6%; (second compound 3 µM, first compound 0.000949 µM) 64%; (second compound 3 µM, first compound 0.003 µM) 48.9%; (second compound 3 µM, first compound 0.00949 µM) 43.5%; (second compound 3 µM, first compound 0.03 µM) 27.1%. Besides, the viability, T/C is 72.6% (second compound 9.49 µM, first compound 94.9 pM); 69.3% (second compound 9.49 µM, first compound 0.0003 µM); 53.5% (second compound 9.49 µM, first compound 0.000949 µM); 45.5% (second compound 9.49 µM, first compound 0.003 µM); 33% (second compound 9.49 µM, first compound 0.00949 µM); 18.4% (second compound 9.49 µM, first compound 0.03 µM). Moreover, the viability, T/C is 45.8% (second compound 30 µM, first compound 94.9 pM); 55.1% (second compound 30 µM, first compound 0.0003 µM); 45.3% (second compound 30 µM, first compound 0.000949 µM); 27.8% (second compound 30 µM, first compound 0.003 µM); 29.6% (second compound 30 µM, first compound 0.00949 µM); 33.6% (second compound 30 µM, first compound 0.03 µM).

With `CCCS(=O)(=O)Nc1ccc(F)c(C(=O)c2c[nH]c3ncc(-c4ccc(Cl)cc4)cc23)c1F` + CC(C)NCC(C(=O)N1CCN(c2ncnc3c2C(C)CC3O)CC1)c1ccc(Cl)cc1, the half-maximal inhibitory concentration (IC50) under setting [1] is over 100000 nM; the half-maximal inhibitory concentration (IC50) under setting [2] was over 100000 nM; the IC50 under setting [3] is over 100000 nM; the IC50 under setting [4] is over 100000 nM; the IC50 under setting [5] is over 100000 nM. Further, the viability, T/C is, setting by setting: (second compound 0.3 µM, first compound 0.316 µM) 83.8%; (second compound 0.3 µM, first compound 1 µM) 99.5%; (second compound 0.3 µM, first compound 3.16 µM) 96.9%; (second compound 0.3 µM, first compound 10 µM) 102%; (second compound 0.3 µM, first compound 31.6 µM) 95.7%; (second compound 0.3 µM, first compound 100 µM) 120%. Besides, the viability, T/C is, setting by setting: (second compound 0.949 µM, first compound 0.316 µM) 86.9%; (second compound 0.949 µM, first compound 1 µM) 89.7%; (second compound 0.949 µM, first compound 3.16 µM) 86.4%; (second compound 0.949 µM, first compound 10 µM) 69.3%; (second compound 0.949 µM, first compound 31.6 µM) 87.2%; (second compound 0.949 µM, first compound 100 µM) 86.9%. Also, the viability, T/C is 72.7% (second compound 3 µM, first compound 0.316 µM); 77.3% (second compound 3 µM, first compound 1 µM); 91.2% (second compound 3 µM, first compound 3.16 µM); 76.9% (second compound 3 µM, first compound 10 µM); 68.7% (second compound 3 µM, first compound 31.6 µM); 74.5% (second compound 3 µM, first compound 100 µM). In addition, the viability, T/C was 63.8% (second compound 9.49 µM, first compound 0.316 µM); 70% (second compound 9.49 µM, first compound 1 µM); 72.2% (second compound 9.49 µM, first compound 3.16 µM); 62.8% (second compound 9.49 µM, first compound 10 µM); 92.2% (second compound 9.49 µM, first compound 31.6 µM); 68.8% (second compound 9.49 µM, first compound 100 µM). Also, the viability, T/C is, setting by setting: (second compound 30 µM, first compound 0.316 µM) 68.4%; (second compound 30 µM, first compound 1 µM) 61.8%; (second compound 30 µM, first compound 3.16 µM) 79%; (second compound 30 µM, first compound 10 µM) 72.1%; (second compound 30 µM, first compound 31.6 µM) 59.5%; (second compound 30 µM, first compound 100 µM) 63.5%.
